Legend:
potato plants = assay: Field test of desiccant effect on potato plants (foliar spray before harvest); type: in vivo; settings: application amount 10 g/ha; emulsifiable concentrate diluted with water containing 1% (v/v) crop oil concentrate, sprayed at the time of foliage turning yellow; examined 14 day after treatment; average of 3 sections
From the text: Seed potatoes were planted on a field and grown. At the time of the foliage turning yellow, 2.5 parts of each of compounds a-5 and a-6, 10 parts of Sorpol 3890 (Toho Chemical Industry Co., Ltd.), and 87.5 parts of SOLVESSO 200 (Exxon Mobile Chemical Company) were well mixed to give an emulsifiable concentrate for each compound, diluted at a prescribed dose with water containing 1% (v/v) crop oil concentrate (COC), and the dilution was uniformly sprayed to the plants. One section of the treated field are 2.1×15.2 m in area, and the potato plants on 14 day after the treatment were examined for the desiccant effect. In the table, the desiccation effect was evaluated with following criteria.
1: The desiccated area of foliage is 0 to 29%
2: The desiccated area of foliage is 30 to 69%
3: The desiccated area of foliage is 70 to 89%
4: The desiccated area of foliage is 90 to 99%
5: The desiccated area of foliage is 100%
The treatment was done in 3 sections, the result was indicated with an average of the 3 sections.

Question: With `COC(=O)COc1ncccc1Oc1cc(-n2c(=O)cc(C(F)(F)F)n(C)c2=O)c(F)cc1Cl` [Compound a-6, methyl [3-{2-chloro-4-fluoro-5-[3-methyl-2,6-dioxo-4-(trifluoromethyl)-1,2,3,6-tetrahydropyrimidin-1-yl]phenoxy}-2-pyridyloxy]acetate] as the compound, how does the Desiccation effect (potato plants) read?
Answer: 5 (The desiccated area of foliage is 100%)

Question: And the melting point?
Answer: 52.2 °C

Question: Which Desiccation effect (potato plants) does the source give for `COC(=O)COc1ccccc1Oc1cc(-n2c(=O)cc(C(F)(F)F)n(C)c2=O)c(F)cc1Cl` [Compound a-5, methyl [2-{2-chloro-4-fluoro-5-[3-methyl-2,6-dioxo-4-(trifluoromethyl)-1,2,3,6-tetrahydropyrimidin-1-yl]phenoxy}phenoxy]acetate] here?
Answer: 5 (The desiccated area of foliage is 100%)

Reference: patent publication US7538072B2, “Stem/leaf desiccant” (Sumitomo Chemical Company, Limited, priority 2001, dated 2009)
